For twelve compounds, AC50 results are on record in ChEMBL document CHEMBL5291721, “A preclinical secondary pharmacology resource illuminates target-adverse drug reaction associations of marketed drugs” (Nat Commun, 2023).

In test [1] the target is Voltage-dependent L-type calcium channel subunit alpha-1C (Homo sapiens, UniProt Q13936). The test is classed as functional, cell-based.
Test [2] has as its target T1, Estrogen receptor (Homo sapiens, UniProt P03372).
T1 sequence (P03372 whole entry): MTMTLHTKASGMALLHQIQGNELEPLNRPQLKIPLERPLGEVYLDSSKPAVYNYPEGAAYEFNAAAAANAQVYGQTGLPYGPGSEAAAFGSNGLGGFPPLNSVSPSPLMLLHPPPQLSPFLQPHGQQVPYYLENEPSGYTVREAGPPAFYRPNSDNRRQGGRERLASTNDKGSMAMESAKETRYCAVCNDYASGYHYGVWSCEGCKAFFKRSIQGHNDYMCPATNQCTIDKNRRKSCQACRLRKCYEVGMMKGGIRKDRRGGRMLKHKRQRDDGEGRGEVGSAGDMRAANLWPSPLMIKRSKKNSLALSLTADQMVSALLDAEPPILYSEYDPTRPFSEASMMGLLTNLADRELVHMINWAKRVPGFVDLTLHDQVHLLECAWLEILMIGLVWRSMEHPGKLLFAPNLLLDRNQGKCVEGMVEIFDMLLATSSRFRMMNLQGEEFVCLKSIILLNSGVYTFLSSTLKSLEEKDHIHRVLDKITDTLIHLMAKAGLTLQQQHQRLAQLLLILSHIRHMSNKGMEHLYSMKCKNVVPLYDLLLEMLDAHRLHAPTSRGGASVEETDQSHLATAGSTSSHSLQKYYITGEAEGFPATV
It is filed as functional.

Test [3] deals with T1, Estrogen receptor. The test is classed as functional. This is another data set of the same source.
Test [4] addresses Synaptic vesicular amine transporter (Rattus norvegicus, UniProt Q01827). The test is classed as functional.
Test [5] addresses T2, Alpha-1A adrenergic receptor (Homo sapiens, UniProt P35348).
T2 sequence (P35348 whole entry): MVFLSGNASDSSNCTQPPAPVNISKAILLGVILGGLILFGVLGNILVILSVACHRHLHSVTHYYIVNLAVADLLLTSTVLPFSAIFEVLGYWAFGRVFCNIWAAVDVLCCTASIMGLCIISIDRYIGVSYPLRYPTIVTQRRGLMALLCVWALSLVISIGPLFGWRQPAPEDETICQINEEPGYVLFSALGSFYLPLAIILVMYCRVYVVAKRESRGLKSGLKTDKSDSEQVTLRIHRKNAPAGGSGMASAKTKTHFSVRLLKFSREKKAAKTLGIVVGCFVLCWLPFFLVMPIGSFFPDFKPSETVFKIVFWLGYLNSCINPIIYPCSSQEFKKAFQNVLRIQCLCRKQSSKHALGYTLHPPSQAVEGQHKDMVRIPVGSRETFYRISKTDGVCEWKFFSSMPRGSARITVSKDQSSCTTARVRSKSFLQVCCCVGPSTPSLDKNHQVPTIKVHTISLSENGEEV

Test [6] deals with T3, Muscarinic acetylcholine receptor M1 (Homo sapiens, UniProt P11229).
T3 sequence (P11229 whole entry): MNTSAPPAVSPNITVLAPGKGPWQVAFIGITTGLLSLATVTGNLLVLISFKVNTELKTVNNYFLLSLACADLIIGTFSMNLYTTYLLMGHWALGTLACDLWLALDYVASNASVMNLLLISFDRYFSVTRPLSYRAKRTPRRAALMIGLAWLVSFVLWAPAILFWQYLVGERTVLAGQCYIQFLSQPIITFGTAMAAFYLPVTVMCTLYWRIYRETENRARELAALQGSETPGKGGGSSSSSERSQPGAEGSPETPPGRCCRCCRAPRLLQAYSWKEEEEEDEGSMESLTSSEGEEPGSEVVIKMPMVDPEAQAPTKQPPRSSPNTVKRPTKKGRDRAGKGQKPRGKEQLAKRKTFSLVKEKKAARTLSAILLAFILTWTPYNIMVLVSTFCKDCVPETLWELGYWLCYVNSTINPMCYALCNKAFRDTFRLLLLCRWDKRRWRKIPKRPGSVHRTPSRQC

The target in test [7] is T4, Muscarinic acetylcholine receptor M5 (Homo sapiens, UniProt P08912).
T4 sequence (P08912 whole entry): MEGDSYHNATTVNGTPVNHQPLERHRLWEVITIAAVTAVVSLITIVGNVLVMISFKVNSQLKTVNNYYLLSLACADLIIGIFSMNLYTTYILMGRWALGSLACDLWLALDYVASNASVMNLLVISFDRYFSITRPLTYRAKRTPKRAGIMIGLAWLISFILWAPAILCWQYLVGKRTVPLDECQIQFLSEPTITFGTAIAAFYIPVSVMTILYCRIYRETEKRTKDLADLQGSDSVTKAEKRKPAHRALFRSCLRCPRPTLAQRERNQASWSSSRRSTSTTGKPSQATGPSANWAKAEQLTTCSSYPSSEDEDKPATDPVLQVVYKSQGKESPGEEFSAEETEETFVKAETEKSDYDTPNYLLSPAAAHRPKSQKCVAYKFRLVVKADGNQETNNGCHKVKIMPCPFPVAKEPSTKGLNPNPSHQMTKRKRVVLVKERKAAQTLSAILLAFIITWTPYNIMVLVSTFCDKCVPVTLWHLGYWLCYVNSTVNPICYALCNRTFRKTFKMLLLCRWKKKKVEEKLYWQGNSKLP

The target in test [8] is 5-hydroxytryptamine receptor 7 (Homo sapiens, UniProt P34969).
For test [9], the target named is Substance-P receptor (Homo sapiens, UniProt P25103).
For test [10], the target named is Histamine H1 receptor (Homo sapiens, UniProt P35367). It is filed as functional, cell-based.
Also: assay procedure not described here.

Voltage-dependent L-type calcium channel subunit alpha-1C, sequence (Q13936 whole entry): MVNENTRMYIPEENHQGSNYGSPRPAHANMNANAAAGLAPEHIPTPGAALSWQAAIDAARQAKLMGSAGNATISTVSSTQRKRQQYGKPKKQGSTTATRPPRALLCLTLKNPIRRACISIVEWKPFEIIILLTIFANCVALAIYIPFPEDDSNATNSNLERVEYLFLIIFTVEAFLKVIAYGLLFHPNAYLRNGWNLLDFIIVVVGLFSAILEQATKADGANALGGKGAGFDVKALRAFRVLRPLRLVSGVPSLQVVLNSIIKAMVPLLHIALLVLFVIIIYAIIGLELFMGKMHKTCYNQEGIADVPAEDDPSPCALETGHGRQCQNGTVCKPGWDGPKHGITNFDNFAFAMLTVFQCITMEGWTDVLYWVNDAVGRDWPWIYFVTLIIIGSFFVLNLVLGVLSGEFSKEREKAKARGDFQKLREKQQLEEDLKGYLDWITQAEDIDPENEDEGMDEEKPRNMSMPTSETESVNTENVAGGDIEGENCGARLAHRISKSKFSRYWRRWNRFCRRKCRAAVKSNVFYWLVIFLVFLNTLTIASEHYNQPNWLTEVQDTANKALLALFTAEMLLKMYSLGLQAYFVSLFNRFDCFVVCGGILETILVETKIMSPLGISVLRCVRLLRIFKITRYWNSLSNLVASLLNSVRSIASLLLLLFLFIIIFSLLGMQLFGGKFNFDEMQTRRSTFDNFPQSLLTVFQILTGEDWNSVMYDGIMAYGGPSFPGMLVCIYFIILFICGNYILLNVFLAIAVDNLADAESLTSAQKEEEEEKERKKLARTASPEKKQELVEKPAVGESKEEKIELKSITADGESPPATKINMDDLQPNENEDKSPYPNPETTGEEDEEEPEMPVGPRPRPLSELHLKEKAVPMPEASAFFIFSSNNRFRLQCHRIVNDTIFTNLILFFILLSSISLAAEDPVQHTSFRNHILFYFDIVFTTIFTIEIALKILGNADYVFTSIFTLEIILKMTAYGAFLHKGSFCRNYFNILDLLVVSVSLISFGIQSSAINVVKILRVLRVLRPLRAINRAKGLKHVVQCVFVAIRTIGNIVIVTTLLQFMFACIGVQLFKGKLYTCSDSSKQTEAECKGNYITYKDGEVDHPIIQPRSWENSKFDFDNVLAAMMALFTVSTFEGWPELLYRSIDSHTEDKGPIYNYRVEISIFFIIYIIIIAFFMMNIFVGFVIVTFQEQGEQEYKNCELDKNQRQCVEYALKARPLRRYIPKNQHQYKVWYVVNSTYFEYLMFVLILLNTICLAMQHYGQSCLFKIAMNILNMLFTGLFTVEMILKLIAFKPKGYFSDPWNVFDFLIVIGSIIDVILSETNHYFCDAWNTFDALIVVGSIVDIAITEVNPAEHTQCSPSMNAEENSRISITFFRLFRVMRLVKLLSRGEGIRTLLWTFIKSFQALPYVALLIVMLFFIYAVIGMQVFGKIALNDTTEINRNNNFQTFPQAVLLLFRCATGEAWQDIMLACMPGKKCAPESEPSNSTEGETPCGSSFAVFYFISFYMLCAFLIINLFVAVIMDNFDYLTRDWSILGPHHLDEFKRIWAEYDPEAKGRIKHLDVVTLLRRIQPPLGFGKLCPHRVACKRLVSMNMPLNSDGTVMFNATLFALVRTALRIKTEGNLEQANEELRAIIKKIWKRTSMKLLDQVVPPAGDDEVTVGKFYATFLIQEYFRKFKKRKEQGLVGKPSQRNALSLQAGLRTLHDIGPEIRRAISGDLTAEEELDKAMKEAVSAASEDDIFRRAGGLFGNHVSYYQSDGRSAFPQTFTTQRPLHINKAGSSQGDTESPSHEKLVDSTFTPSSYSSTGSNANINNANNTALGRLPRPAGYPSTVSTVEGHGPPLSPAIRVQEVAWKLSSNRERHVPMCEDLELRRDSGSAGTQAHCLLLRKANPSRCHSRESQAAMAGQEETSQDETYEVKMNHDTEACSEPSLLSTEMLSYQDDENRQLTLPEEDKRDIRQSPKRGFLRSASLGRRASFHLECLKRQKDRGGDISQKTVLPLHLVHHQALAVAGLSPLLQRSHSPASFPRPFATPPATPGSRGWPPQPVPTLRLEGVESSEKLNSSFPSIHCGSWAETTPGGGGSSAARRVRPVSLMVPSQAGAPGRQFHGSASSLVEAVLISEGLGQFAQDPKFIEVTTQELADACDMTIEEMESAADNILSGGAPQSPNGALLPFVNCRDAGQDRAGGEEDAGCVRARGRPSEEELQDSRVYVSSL
Synaptic vesicular amine transporter, sequence (Q01827 whole entry): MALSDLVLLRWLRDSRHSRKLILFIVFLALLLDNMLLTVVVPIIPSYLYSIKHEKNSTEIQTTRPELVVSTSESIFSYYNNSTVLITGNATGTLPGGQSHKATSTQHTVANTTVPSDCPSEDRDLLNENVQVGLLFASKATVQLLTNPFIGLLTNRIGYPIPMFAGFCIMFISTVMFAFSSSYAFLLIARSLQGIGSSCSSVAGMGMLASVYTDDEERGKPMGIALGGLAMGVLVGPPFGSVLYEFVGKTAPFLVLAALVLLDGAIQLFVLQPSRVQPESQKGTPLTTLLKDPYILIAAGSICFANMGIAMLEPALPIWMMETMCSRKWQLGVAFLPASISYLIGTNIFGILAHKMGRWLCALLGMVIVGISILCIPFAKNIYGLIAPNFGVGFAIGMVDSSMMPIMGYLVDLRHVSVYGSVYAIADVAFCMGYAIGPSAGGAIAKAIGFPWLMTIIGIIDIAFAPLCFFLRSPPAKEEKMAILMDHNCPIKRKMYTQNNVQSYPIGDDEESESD
Substance-P receptor, sequence (P25103 whole entry): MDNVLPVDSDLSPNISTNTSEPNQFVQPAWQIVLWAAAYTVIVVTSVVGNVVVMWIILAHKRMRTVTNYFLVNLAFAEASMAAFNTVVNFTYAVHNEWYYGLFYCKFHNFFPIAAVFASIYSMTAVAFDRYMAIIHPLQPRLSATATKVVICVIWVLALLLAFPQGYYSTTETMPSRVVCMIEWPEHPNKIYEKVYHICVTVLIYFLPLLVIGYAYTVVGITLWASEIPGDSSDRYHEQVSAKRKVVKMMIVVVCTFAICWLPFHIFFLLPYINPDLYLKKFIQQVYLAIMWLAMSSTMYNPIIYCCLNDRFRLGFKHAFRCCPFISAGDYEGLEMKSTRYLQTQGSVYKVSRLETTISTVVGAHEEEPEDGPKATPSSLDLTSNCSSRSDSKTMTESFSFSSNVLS
5-hydroxytryptamine receptor 7, sequence (P34969 whole entry): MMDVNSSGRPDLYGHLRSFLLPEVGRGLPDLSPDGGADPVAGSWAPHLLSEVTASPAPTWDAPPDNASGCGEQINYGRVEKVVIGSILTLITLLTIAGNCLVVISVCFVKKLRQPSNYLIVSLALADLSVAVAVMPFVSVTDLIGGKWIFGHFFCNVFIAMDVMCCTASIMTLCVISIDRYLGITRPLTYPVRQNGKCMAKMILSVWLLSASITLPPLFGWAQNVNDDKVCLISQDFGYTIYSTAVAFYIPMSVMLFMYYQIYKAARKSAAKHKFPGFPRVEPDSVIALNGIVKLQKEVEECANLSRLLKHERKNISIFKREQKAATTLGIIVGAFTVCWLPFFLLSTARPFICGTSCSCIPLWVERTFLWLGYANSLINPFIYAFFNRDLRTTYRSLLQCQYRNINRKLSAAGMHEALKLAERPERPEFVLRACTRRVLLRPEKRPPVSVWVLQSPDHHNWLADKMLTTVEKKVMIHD
Histamine H1 receptor, sequence (P35367 whole entry): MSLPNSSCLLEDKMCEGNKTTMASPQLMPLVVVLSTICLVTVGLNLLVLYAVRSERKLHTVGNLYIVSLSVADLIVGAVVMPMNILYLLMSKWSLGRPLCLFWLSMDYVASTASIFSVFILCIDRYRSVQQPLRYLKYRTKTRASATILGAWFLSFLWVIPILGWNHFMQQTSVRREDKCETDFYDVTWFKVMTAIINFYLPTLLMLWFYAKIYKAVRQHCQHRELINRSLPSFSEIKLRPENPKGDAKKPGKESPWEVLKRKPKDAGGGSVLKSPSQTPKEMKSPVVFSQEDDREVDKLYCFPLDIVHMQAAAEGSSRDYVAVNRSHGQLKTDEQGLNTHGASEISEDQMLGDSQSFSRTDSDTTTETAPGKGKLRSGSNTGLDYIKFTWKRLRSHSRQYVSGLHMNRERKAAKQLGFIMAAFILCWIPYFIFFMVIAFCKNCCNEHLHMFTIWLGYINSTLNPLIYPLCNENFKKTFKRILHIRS

In the case of `C[C@@H](Oc1cc(-c2cnn(C3CCNCC3)c2)cnc1N)c1c(Cl)ccc(F)c1Cl` [CRIZOTINIB], the concentration at half-maximal activity (AC50) in test [1], in test [2] and in [3] was > 30 µM in each case.

As to `OC[C@H]1O[C@@H](c2ccc(Cl)c(Cc3ccc(O[C@H]4CCOC4)cc3)c2)[C@H](O)[C@@H](O)[C@@H]1O` [EMPAGLIFLOZIN], the AC50 (as a rule, the concentration at which the activity in the assay is half-maximal) in test [4] was determined as 16 µM.

On to `CC(C)(O)CNc1nc(Nc2ccnc(C(F)(F)F)c2)nc(-c2cccc(C(F)(F)F)n2)n1` [ENASIDENIB], for which the values for the AC50 in [5], in test [6] and in test [4] were > 30 µM, > 30 µM and 1.8 µM, respectively.

As for `C#C[C@]1(O)CC[C@H]2[C@@H]3CCC4=CC(=O)CC[C@@H]4[C@H]3C(=C)C[C@@]21CC` [ETONOGESTREL], the AC50 in [5] and in test [6] was > 30 µM in each case.

On to `CC(C)C[C@H](NC(=O)CNC(=O)c1cc(Cl)ccc1Cl)B(O)O` [IXAZOMIB], for which the AC50 in [4] was > 30 µM.

On to `CN(CC1(C)CCCO1)S(=O)(=O)c1ccc(Cl)c(S(N)(=O)=O)c1` (stereo not drawn) [MEFRUSIDE], for which the AC50 in test [5] and in test [6] was > 30 µM each time.

Turning to `CCOC(=O)c1c(C)cc2c(CO)n[nH]c(=O)c2c1C` [OXAGRELATE], the AC50 in test [5] and in [6] was > 30 µM in each case.

For `FC(F)(F)c1ccc(CNc2ccc(Cc3c[nH]c4ncc(Cl)cc34)cn2)cn1` [PEXIDARTINIB], the figures for the AC50 in test [5] and in [6] were 1.31 µM and 0.3 µM, respectively.

On to `CC[C@@]1(O)C(=O)OCc2c1cc1n(c2=O)Cc2cc3c([N+](=O)[O-])cccc3nc2-1` [RUBITECAN], for which the AC50 in test [5] and in [6] was > 30 µM throughout.

In the case of `N[C@@H](CC(=O)N1CCn2c(nnc2C(F)(F)F)C1)Cc1cc(F)c(F)cc1F` [SITAGLIPTIN], the concentration at half-maximal activity (AC50) in [1] is > 50 µM; in test [7] it was > 10 µM; in test [2] it was > 30 µM; in test [3], > 30 µM; in test [8] it was > 10 µM; in test [9] it was > 10 µM.

In the case of `OC[C@H]1O[C@@](CO)(O[C@H]2O[C@H](CO)[C@@H](O)[C@H](O)[C@H]2O)[C@@H](O)[C@@H]1O` [SUCROSE], the AC50 in test [5], in test [6] and in test [10] was > 30 µM throughout.

For the compound `C=CC[C@@H]1/C=C(\C)C[C@H](C)C[C@H](OC)[C@H]2O[C@@](O)(C(=O)C(=O)N3CCCC[C@H]3C(=O)O[C@H](/C(C)=C/[C@@H]3CC[C@@H](O)[C@H](OC)C3)[C@H](C)[C@@H](O)CC1=O)[C@H](C)C[C@@H]2OC` [TACROLIMUS ANHYDROUS], the AC50 in [1] is > 50 µM; in test [7] it was > 10 µM; in test [2], > 30 µM; in test [3], > 30 µM; in [8], > 10 µM; in test [9] it was > 10 µM.
